Experimental data taken from patent publication US8785447B2, “Use of dopamine D3 receptor ligands for the production of drugs for treating renal function disorders” (AbbVie Deutschland GmbH & Co. KG, priority 2000, dated 2014).

What was measured:
Assay type in all cases: in vivo, male Sprague-Dawley rats
[1] = system: animal experimental model of diabetic nephropathy (rats with streptozotocin-induced diabetes mellitus); experiment: Clearance investigation (renal 3H-inulin clearance, GFR) in anesthetized streptozotocin-diabetic rats; settings: for glomerular filtration rate (GFR): anesthetized diabetic rats after 14 to 16 days, 3H-inulin clearance, S-sulpiride 25 mg/kg/d, D3-A 5 mg/kg/d, untreated diabetic 1.10 vs. time control 0.83
Method: (§1) The action of the dopamine D3 antagonists was investigated in an animal experimental model of diabetic nephropathy. Rats in which diabetes mellitus had been induced by administration of streptozotocin developed marked glomerular hyperfiltration within 14 days.
(§2) 60 mg/kg of streptozotocin, dissolved in citrate buffer (21 mg of citric acid per 1 ml of double-distilled water), were injected intraperitoneally into male Sprague-Dawley rats having a body weight of 180 to 200 g. Diabetes mellitus was regarded as being induced successfully when an evening glucose concentration of at least 180 mg/dl was found in the venous blood after 24 hours. The blood glucose values of the diabetic animals were between 350 and 450 mg/dl. Insulin substitution was thus not necessary. The body weight of the experimental animals increased about 5 g per day. The same volume of citrate buffer was injected intraperitoneally into nondiabetic time control animals (CON). They had blood glucose values of between 90 and 1120 mg/dl.
(§3) Immediately after successful determination of diabetes mellitus, the animals were accommodated in normal cages with standard feed (Altromin 1320) and mains water ad libitum. By means of different medicinal treatment (administration of the substances via the drinking water), the following four experimental groups were formed: • CON (1) nondiabetic animals without additional treatment (time control) • DM-VHC (2) diabetic animals without additional treatment (diabetic control) • DM-SUL (3) diabetic animals with S-sulpiride treatment (25 mg/kg/d) • DM-D3 (4) diabetic animals with D3-A treatment (D3-A1: D3 receptor antagonist according to Example (7) (5 mg/kg/d); D3-A2: D3 receptor antagonist according to Example (11))
(§4) The volume of liquid absorbed was recorded daily. Every third day, the body weight and the blood glucose level of the animals were determined. After 12 days, the experimental animals were kept in metabolic cages for 24 hours for urine collection. The protein concentration in the urine was determined according to the standard method described by Lowry. For this, after incubation of the samples with 1 M NaOH a color reaction was induced with Folin reagent (phenol-Ciocalteu's), whose intensity was quantified photometrically. The albumin concentration in the urine was determined by a radioimmunoassay (RIA) specific for albumin. A kit from Biermann (KHAD 2: albumin RIA), was employed which used a polyclonal antibody against human serum albumin (goat) and ^125I-labeled human serum albumin as a tracer. After 14 to 16 days, the animals were anesthetized with thiopental (80 mg/kg) and polyethylene catheters were placed in the jugular vein and the carotid artery and also in the urinary bladder. The glomerular filtration rate (GFR) was determined by means of the renal ^3H-inulin clearance. The mean arterial blood pressure (MAP) and the heart rate (HR) were furthermore recorded during the experiment. At the end of the clearance experiments, the kidneys were removed and subjected to a histopathological examination.

[2] = system: animal experimental model of diabetic nephropathy (rats with streptozotocin-induced diabetes mellitus); experiment: Histopathological examination of the kidneys of streptozotocin-diabetic rats; settings: for structural intrarenal changes occurring in diabetic nephropathy: comparison of the treatment groups; for glomerular hypertrophy (enlargement of the glomeruli): mean of 20 microscopically measured areas, S-sulpiride 25 mg/kg/d, D3-A1 5 mg/kg/d
Method: as §2, §3, §4

[3] = system: animal experimental model of diabetic nephropathy (rats with streptozotocin-induced diabetes mellitus); experiment: 24-hour urine collection (protein by Lowry, albumin by RIA) in streptozotocin-diabetic rats; settings: for albuminuria / proteinuria: 24-hour urine of conscious diabetic rats after 12 days, via drinking water, S-sulpiride 25 mg/kg/d, D3-A1 5 mg/kg/d; for albuminuria: untreated diabetic 118 vs. time control 23; for proteinuria: untreated diabetic 133 vs. time control 46
Method: as §1, §2, §3, §4

[4] = system: animal experimental model of diabetic nephropathy (rats with streptozotocin-induced diabetes mellitus); experiment: Kidney wet weight of streptozotocin-diabetic rats
Method: as §2, with “[…]. […]” for “1120 mg/dl.”
The volume of liquid absorbed was recorded daily. Every third day, the body weight and the blood glucose level of the animals were determined. […] The protein concentration in the urine was determined according to the standard method described by Lowry. For this, after incubation of the samples with 1 M NaOH a color reaction was induced with Folin reagent (phenol-Ciocalteu's), whose intensity was quantified photometrically. The albumin concentration in the urine was determined by a radioimmunoassay (RIA) specific for albumin. […] The glomerular filtration rate (GFR) was determined by means of the renal ^3H-inulin clearance. […]

[5] = diabetic rats, subchronic treatment
[6] = diabetic rats, subchronic treatment, 30 mg/kg body weight per day

Row | SMILES | glomerular filtration rate (GFR) [1] [mL/min] | renal hemodynamic changes in the course of diabetic nephropathy [1, 5] | structural intrarenal changes occurring in diabetic nephropathy [2] | glomerular hypertrophy (enlargement of the glomeruli) [2] | albuminuria [3] [µg/day] | proteinuria [3] [mg/day] | pathological protein and albumin excretion ([3]; diabetic rats, comparison of the treatment groups) | diabetes-induced renal hyperperfusion [1, 6] | glomerular hyperfiltration [1, 6] | kidney wet weight ([4]; diabetic rats treated with D3-A2, nondiabetic 0.9±0.1, DM-VHC 1.1+0.04) | incipient renal hypertrophy [4, 6]
1 | CC(=CCN1CCN(c2cc(C(F)(F)F)nc(C(C)(C)C)n2)CC1)CSc1nnc(N)n1C [Example 7] | 0.83 | significant decrease | abolished | not | 18 | 113 | markedly reduced | – | – | – | –
2 | CCN1CCC[C@H]1CNC(=O)c1cc(S(N)(=O)=O)ccc1OC [sulpiride, S-sulpiride, reference compound] | 0.71 | significant decrease | not | likewise to be observed | 101 | 178 | – | – | – | – | –
3 | CC(C)(C)c1nc(N2CCN(CCCSc3nccc(O)n3)CC2)cc(C(F)(F)F)n1.O=C(O)/C=C/C(=O)O [Example 11, 2-(3-(4-(2-t-Butyl-6-trifluoromethyl)pyrimidin-4-yl)piperazin-1-yl)propylmercaptopyrimidin-4-ol fumarate] | – | – | abolished | – | – | – | – | distinctly reduced | distinctly reduced | 0.96+0.03 g per 100 g body weight | distinct reduction
